According to paper PMC11513854, “De novo GTP synthesis is a metabolic vulnerability for the interception of brain metastases” (Cell Reports Medicine, 2024):

Assays:
[1] = test system: BT478 and BT530 tumor cells; test: Dose-response with exogenous guanine supplementation; format: cell-based, human; settings: guanine 12 μM in culture media
Description: Created with BioRender.com. […] Comparisons were made via a two-tailed unpaired t test, n = 4 technical replicates, p value is indicated. N.s., not significant, ∗∗∗∗ = p < 0.0001. […] Comparisons were made via a two-tailed unpaired t test, n = 4 technical replicates. N.s., not significant. […] Data are presented as mean ± SD from 4 technical replicates. (E) Immunoblot confirmation of IMPDH (IMPDH1 + IMPDH2) knockout (KO) in patient-derived lung-BMICs. Cropped from single full blot. (F) Time-course proliferation assays of AAVS1 and IMPDH KO BT478 and BT530 cells. Comparisons were made via a two-tailed unpaired t test. Data are presented as mean ± SD from 4 technical replicates, ∗∗∗∗ = p < 0.0001. (G) Representative bar graphs depicting the sphere count per 200 cells of AAVS1 vs. IMPDH KO cells. Comparisons were made via a two-tailed unpaired t test, data are presented as mean ± SD from 4 technical replicates, ∗∗∗∗ = p < 0.0001. (H) Kaplan-Meier curves showing the overall survival probability (from primary cancer diagnosis to death) in a cohort of 30 patients with lung carcinoma who developed BM, for IMPDH2 very high vs. very low expression (1st and 3rd quartiles cutoff values: <114.86 and >210.74). The Cox regression model for survival analysis was used, p values (p) are shown. […]

MDR1-MDCKII cells = test: Bi-directional permeability via MDR1-MDCKII cells; format: in vitro ADME
Method: (§1) MDR1-MDCKII permeability assays were performed by Wuxi AppTec Co. Briefly, MDR1-MDCK1 cells were seeded onto polycarbonate membranes in 96-well insert system plates and allowed to develop into monolayers. […] The plate was incubated for 2.5 h (37°C, 5% CO2) and the media was sampled on either side and the compound present was quantified by LC-MS/MS and the concentrations were used to calculate the efflux ratio. Digoxin (10 μM), nadolol (2 μM), and metoprolol (2 μM) were used as controls.

MDR1 = test: Bi-directional permeability via MDR1-MDCKII cells; format: in vitro ADME; settings: dog, MDCK-MDR1, pH 7.4; 2 μM (digoxin 10 μM), 2.5 h
Method: as §1

patient-derived BMICs [2] = test: Pre-treatment PDX model, intracranial engraftment of lung-BMICs; format: in vivo, mice; settings: vs placebo
Description: We decided to focus primarily on lung-BM for our in vivo experiments because they account for over 50% of all BM cases. […] This phenotype was also recapitulated in a melanoma-BM PDX model (Figures S2A and S2B).
Comparisons were made via a two-tailed unpaired t test and data are presented as mean ± SD from 4 to 5 technical replicates. p value is indicated. (C) Schematic of experimental timeline. […] IVIS, in vivo imaging system. Comparisons were made via a two-tailed unpaired t test and data are presented as mean ± SD from 4 to 5 technical replicates. p value is indicated. […] Comparisons were made via a log rank (Mantel-Cox) test, p value is indicated. (G) Quantification of human cells in mouse brains by flow cytometry at the humane endpoint. […]
All experimental procedures involving animal work has been reviewed and approved by McMaster University Animal Research Ethics Board. […] Mice are monitored weekly for signs of illness until endpoint.
Bioluminescent imaging was performed using an IVIS Spectrum In Vivo Imaging System (PerkinElmer) as per the manufacturer’s instructions. Imaging and quantification of signals is controlled by the analysis software Living Image (Xenogen). […] Regions of interest were quantified by bioluminescent signal (photons per second) using Living Image software for a standardized comparison between images.

patient-derived BMICs [3] = test: Clonogenic secondary sphere formation assay after drug removal; format: cell-based, human; settings: IC80 treatment for 72 h, then removal from culture media
patient-derived BMICs [4] = test: Clonogenic sphere formation assay; format: cell-based, human; settings: limiting dilution and clonogenic sphere formation assays, IC80
Method: To assess tumor sphere forming capacity under clonogenic conditions, neurospheres were dissociated into single cells and plated at a low density of 200 cells/well in low-binding tissue culture-treated 96-well plates in serum-free media as previously described.[14]^,[66]^,[67]^,[68]^,[69] Cells were incubated with drug (IC80) or DMSO control, in triplicate, and incubated at 37°C with a humidified atmosphere of 5% CO2. The number of spheres per well were manually counted seven days later. The results were illustrated and analyzed for significance using GraphPad Prism 8 software.

[5] = test system: primary lung CRUK0748 cell line; test: Orthotopic injection of CRUK0748, daily oral gavage treatment; format: in vivo, mice; settings: 100 mg/kg daily oral gavage, vs placebo
Description: Next, we injected mice orthotopically with the primary lung CRUK0748 cell line and treated them daily as described earlier (see Figure S3A).
All experimental procedures involving animal work has been reviewed and approved by McMaster University Animal Research Ethics Board. Non-obese diabetic-severe combined immunodeficient IL2r γ ^null (NSG) mice are used for all experiments. Equal numbers of male and female mice were used for all experiments. Healthy mice were 6–8 weeks at time of use. Mice are anesthetized by gas anesthesia using isoflurane (4% induction, 2.5% maintenance) before procedure. Cells were engineered to express firefly luciferase and were injected intracardially, orthotopically, or intracranially as previously described.[13]^,[14]^,[63]^,[64]^,[65] […] Mice are monitored weekly for signs of illness until endpoint.
Fig S3. MPA m ust cross the blood brain barrier to eff ectively slow the progression of BM over tim e, related to Figures 3 and 4. a, Mice were either orthotopically (intratho racically) or intracardiac injected with lung BMICs, […]
seven days post-injection by IVIS, (c), no significant reduction in tumor burden following t reatment completion […]
to placebo, but (f) had the same number of human cells detected in their brains following humane endpoint by flow cytometry. n.s. = not significant.
(1 picture or pasted object on this page, not shown here)

Structure (SMILES) | BMIC viability with exogenous guanine supplementation [1] | Rank of Papp (MDR1-MDCKII cells) | permeability for entering the brain (MDR1-MDCKII cells; MDCK-MDR1 cell monolayer model) | substrate for P-glycoprotein (ABCB1) (MDR1-MDCKII cells; MDCK-MDR1 cell monolayer model) | Papp A→B at 2.5 h, 2 μM (MDR1) [×10⁻⁶ cm/s] | Papp B→A at 2.5 h, 2 μM (MDR1) [×10⁻⁶ cm/s] | efflux ratio at 2.5 h, 2 μM (MDR1) | brain tumor burden (patient-derived BMICs [2]; BMICs pre-treated at IC80, 2 weeks post-injection, IVIS) | survival (patient-derived BMICs [2]; BMICs pre-treated at IC80, intracranial engraftment) | sphere-forming capability following drug removal (patient-derived BMICs [3]) | frequency of stemness in BMIC lines (patient-derived BMICs [4]) | number of human cells detected in mouse brains ([5]; humane endpoint, flow cytometry) | survival [5]
COc1c(C)c2c(c(O)c1C/C=C(\C)CCC(=O)OCCN1CCCC1)C(=O)OC2 [Compound 3] | rescued BMIC viability | High | high permeability | not significant substrates | 14.8 | 12.5 | 0.848 | – | – | – | – | – | –
COc1c(C)c2c(c(O)c1C/C=C(\C)CCC(=O)O)C(=O)OC2 [MPA, Mycophenolic acid] | rescued BMIC viability | – | – | not significant substrates | 26 | 10 | – | significantly reduced brain tumor burden | survived significantly longer | do not regain sphere-forming capability | significantly reduces the frequency of stemness | no significant difference | survived significantly longer
